Reference: article doi:10.1101/2025.01.28.635346v1 (bioRxiv, 2025)
Bridge positions count the residues as written; N and C are the ends. Side chains are listed from the residue outwards. Peptide text beside a SMILES is read from it. * marks the point of attachment. Butanoyl(4-(4-I-phenyl)) = O=C(CCCc1ccc(I)cc1)*; PEG2 = NCCOCCOCCC(=O)O

Experiments:
[1] = biological target: LCK (Homo sapiens, UniProt P06239); assay: Safetyscan47 Kinases Binding, Inhibitor
[2] = biological target: T1, CHRM1 (Homo sapiens, UniProt P11229); assay: Safetyscan47 GPCR Calcium Flux, Antagonist; assay type: cell-based
T1 sequence (P11229 1-460): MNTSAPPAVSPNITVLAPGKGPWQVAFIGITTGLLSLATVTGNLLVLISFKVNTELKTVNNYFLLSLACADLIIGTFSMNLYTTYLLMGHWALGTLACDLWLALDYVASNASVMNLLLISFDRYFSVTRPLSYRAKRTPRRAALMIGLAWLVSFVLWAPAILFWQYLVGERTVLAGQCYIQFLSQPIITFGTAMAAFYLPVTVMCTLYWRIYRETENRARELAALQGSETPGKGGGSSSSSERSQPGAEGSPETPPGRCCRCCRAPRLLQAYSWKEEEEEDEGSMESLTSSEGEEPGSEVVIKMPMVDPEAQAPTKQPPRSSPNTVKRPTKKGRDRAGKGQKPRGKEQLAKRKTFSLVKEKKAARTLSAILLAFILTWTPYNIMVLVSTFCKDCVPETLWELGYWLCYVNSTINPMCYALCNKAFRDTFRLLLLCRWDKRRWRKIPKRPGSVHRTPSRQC

[3] = biological target: T2, GR (Homo sapiens, UniProt P04150); assay: Safetyscan47 NHR Protein Interaction, Agonist; assay type: cell-based
T2 sequence (P04150 1-777): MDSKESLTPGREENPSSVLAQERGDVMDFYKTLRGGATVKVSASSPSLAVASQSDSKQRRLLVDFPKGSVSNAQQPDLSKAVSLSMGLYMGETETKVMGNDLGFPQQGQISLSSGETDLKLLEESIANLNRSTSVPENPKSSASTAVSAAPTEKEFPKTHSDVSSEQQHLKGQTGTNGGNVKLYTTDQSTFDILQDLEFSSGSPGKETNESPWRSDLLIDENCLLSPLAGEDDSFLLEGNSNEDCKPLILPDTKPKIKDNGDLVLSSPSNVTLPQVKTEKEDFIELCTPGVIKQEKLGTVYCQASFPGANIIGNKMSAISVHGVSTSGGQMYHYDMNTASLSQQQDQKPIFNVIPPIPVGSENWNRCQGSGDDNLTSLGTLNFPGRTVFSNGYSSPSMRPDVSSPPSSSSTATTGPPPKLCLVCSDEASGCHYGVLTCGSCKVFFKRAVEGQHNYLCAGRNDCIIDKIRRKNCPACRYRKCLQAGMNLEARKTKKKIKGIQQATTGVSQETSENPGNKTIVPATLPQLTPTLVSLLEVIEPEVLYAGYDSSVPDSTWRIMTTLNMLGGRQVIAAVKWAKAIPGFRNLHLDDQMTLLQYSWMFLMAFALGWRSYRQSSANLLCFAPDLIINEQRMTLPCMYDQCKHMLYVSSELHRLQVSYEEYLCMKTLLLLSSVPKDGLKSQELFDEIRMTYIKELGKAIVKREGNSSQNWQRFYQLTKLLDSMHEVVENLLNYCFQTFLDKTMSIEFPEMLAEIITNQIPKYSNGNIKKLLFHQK

[4] = biological target: NAV1.5 (Homo sapiens, UniProt Q14524); assay: Safetyscan47 Ion Channel, Blocker; assay type: cell-based
[5] = Pharmacokinetics in female Balb/c mice; assay type: in vivo, mouse
[6] = biological target: DRD1 (Homo sapiens, UniProt P21728); assay: Safetyscan47 GPCR cAMP, Agonist; assay type: cell-based
[7] = biological target: CNR2 (Homo sapiens, UniProt P34972); assay: Safetyscan47 GPCR cAMP, Antagonist; assay type: cell-based
[8] = Table S3B, IP 30 mg/kg, mouse, animal 2F001
[9] = Table S3B, IP 30 mg/kg, mouse, animal 2F002
[10] = Table S3B, IP 30 mg/kg, mouse, animal 2F003
[11] = Table S3B, IP 30 mg/kg, mouse, animal 2F004
[12] = Table S3B, IP 30 mg/kg, mouse, animal 2F005
[13] = Table S3B: IP 30 mg/kg, Mean N=5
[14] = Table S3D, IP 10 mg/kg, mouse, animal 1F001
[15] = Table S3D, IP 10 mg/kg, mouse, animal 1F002
[16] = Table S3D, IP 10 mg/kg, mouse, animal 1F003
[17] = Table S3D, IP 10 mg/kg, mouse, animal 1F004
[18] = Table S3D, IP 10 mg/kg, mouse, animal 1F005
[19] = Table S3D, SC 10 mg/kg, mouse, animal 2F001
[20] = Table S3D, SC 10 mg/kg, mouse, animal 2F002
[21] = Table S3D, SC 10 mg/kg, mouse, animal 2F003
[22] = Table S3D, SC 10 mg/kg, mouse, animal 2F004
[23] = Table S3D, SC 10 mg/kg, mouse, animal 2F005
[24] = female, Balb/c, mouse, plasma, ip, 10 mg/kg
[25] = female, Balb/c, mouse, plasma, ip, 30 mg/kg
[26] = female, Balb/c, mouse, plasma, sc, 10 mg/kg

Sequence of CNR2 (P34972 whole entry): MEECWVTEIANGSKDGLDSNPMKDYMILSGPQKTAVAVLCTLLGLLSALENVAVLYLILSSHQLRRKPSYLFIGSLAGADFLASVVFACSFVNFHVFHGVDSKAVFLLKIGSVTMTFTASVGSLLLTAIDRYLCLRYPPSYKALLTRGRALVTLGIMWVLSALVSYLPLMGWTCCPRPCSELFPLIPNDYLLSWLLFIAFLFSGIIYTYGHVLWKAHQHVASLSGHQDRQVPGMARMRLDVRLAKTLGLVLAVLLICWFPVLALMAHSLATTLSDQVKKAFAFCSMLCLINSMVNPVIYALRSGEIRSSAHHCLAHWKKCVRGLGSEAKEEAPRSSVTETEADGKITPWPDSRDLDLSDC
Sequence of LCK (P06239 whole entry): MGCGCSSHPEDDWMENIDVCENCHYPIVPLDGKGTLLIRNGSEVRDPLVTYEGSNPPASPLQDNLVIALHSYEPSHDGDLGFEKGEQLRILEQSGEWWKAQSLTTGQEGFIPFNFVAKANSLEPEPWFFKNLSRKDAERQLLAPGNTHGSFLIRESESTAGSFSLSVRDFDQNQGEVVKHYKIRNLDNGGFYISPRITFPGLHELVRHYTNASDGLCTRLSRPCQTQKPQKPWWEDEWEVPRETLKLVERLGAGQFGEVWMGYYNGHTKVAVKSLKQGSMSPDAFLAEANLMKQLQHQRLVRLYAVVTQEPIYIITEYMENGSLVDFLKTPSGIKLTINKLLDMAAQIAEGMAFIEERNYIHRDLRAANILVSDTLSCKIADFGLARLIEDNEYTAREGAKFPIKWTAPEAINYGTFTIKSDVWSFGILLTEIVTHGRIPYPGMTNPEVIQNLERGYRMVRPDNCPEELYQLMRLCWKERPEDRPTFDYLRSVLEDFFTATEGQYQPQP
Sequence of DRD1 (P21728 whole entry): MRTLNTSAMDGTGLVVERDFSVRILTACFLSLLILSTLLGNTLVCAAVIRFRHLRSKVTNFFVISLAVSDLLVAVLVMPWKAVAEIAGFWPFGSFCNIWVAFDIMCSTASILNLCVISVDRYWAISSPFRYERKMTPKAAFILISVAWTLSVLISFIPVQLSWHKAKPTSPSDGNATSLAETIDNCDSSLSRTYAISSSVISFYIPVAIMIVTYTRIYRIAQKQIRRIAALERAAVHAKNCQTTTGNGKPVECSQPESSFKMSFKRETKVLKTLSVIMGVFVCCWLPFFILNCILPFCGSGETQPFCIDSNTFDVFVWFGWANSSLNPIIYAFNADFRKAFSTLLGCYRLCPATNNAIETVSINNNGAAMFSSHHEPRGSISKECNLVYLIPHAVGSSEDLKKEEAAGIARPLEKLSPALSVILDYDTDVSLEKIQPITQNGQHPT
Sequence of NAV1.5 (Q14524 whole entry): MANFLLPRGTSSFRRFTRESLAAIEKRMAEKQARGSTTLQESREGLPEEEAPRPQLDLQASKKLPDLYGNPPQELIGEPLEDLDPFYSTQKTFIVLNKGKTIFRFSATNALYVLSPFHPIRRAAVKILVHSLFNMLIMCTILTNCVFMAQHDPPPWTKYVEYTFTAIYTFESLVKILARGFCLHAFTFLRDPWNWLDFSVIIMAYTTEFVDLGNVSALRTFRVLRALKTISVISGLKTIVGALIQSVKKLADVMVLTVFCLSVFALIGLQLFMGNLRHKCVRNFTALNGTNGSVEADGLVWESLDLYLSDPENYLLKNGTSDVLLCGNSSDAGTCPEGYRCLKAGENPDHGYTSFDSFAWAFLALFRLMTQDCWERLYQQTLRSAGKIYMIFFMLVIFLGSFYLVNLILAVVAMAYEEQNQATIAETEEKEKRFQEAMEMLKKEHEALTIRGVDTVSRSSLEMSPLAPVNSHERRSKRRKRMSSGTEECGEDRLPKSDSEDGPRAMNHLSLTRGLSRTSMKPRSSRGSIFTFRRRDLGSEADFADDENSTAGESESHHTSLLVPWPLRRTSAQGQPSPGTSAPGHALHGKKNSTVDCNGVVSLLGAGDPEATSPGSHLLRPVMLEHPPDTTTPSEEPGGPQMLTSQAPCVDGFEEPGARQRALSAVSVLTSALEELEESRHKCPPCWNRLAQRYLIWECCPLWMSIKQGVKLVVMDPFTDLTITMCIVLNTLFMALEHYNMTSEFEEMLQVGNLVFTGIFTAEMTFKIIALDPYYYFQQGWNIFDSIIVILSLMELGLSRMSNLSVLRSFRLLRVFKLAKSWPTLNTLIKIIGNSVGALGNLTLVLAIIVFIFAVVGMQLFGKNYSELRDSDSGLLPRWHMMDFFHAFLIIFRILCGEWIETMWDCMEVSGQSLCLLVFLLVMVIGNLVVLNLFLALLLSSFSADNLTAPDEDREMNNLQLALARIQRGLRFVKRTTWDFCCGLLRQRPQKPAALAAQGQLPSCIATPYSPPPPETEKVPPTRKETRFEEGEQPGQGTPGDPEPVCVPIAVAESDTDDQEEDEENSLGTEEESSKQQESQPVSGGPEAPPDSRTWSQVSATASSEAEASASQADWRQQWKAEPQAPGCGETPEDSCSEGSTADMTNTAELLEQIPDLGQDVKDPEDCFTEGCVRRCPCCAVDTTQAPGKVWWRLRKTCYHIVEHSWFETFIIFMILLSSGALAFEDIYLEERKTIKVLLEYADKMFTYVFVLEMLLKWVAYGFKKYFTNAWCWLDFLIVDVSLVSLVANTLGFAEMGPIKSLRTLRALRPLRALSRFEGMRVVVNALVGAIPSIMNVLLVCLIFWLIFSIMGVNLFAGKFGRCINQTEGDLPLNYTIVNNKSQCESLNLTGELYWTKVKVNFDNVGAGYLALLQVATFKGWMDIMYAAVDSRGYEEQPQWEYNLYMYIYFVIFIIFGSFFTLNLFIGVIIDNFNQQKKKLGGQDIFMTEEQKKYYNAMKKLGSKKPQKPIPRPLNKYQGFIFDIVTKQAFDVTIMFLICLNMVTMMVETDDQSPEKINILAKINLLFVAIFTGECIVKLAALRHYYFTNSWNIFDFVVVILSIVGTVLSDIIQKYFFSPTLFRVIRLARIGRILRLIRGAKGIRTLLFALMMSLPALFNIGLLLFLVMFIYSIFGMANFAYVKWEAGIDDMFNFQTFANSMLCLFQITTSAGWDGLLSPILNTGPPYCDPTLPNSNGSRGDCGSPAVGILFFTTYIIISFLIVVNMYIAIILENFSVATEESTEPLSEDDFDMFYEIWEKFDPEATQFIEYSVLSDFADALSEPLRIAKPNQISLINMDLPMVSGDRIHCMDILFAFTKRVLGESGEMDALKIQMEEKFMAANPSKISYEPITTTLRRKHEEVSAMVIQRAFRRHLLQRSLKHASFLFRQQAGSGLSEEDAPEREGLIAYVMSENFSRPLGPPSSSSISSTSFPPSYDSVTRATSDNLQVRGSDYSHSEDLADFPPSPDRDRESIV

CC[C@H](C)[C@H](NC(=O)[C@H](CC(C)C)NC(=O)[C@H](CC(=O)O)NC(=O)CNC(=O)[C@H](CCCNC(=N)N)NC(=O)[C@@H](NC(=O)[C@H](Cc1ccccc1)NC(=O)[C@H](Cc1ccc(O)cc1)NC(=O)[C@@H]1CCC(=O)NCC(=O)NCC(=O)N[C@@H](CCCNC(=N)N)C(=O)NCC(=O)N[C@@H](Cc2c[nH]cn2)C(=O)N[C@@H](C(C)C)C(=O)N2CCC[C@H]2C(=O)N1)C(C)C)C(=O)N[C@@H](CO)C(=O)N[C@@H](Cc1ccccc1)C(=O)N[C@@H](Cc1ccc(O)cc1)C(=O)N[C@@H](CCCCNC(=O)CCOCCOCCNC(=O)CCCc1ccc(I)cc1)C(=O)O [lassotide 47] (GGRGHVPEYFVRGDLISFYK([PEG2-Butanoyl(4-(4-I-phenyl))])-OH; lactam N-8)
IC50 [1]: > 45 µM
Emax ([1]; read-out: Max Response): 0%
IC50 [2]: > 45 µM
Emax ([2]; read-out: Max Response): 0%
EC50 [3]: > 45 µM
Emax ([3]; read-out: Max Response): 0%
Emax [4]: 0%
IC50 [4]: > 45 µM
improvement in t1/2 vs 36 ([5]; 30 mg/kg IP, mice): 9 fold
increase in AUC vs 36 ([5]; 30 mg/kg IP, mice): 39 fold
Cl ([5]; Mouse, 30 mg/kg IP, mean): 0.3 mL/min/kg
Vz ([5]; Mouse, 30 mg/kg IP, mean): 0.1 L/kg
AUClast [5, 8]: 1750000
CL/F [5, 8]: 0.271
Cmax [5, 8]: 167000
Tmax [5, 8]: 2.0
Vz/F [5, 8]: 118
t1/2 [5, 8]: 5.0
AUClast [5, 9]: 1710000
CL/F [5, 9]: 0.278
Cmax [5, 9]: 182000
Tmax [5, 9]: 2.0
Vz/F [5, 9]: 128
t1/2 [5, 9]: 5.3
AUClast [5, 10]: 1270000
CL/F [5, 10]: 0.356
Cmax [5, 10]: 96500
Tmax [5, 10]: 4.0
Vz/F [5, 10]: 215
t1/2 [5, 10]: 7.0
AUClast [5, 11]: 1810000
CL/F [5, 11]: 0.266
Cmax [5, 11]: 151000
Tmax [5, 11]: 2.0
Vz/F [5, 11]: 109
t1/2 [5, 11]: 4.7
AUClast [5, 12]: 2150000
CL/F [5, 12]: 0.219
Cmax [5, 12]: 231000
Tmax [5, 12]: 4.0
Vz/F [5, 12]: 105
t1/2 [5, 12]: 5.5
Vz/F [5, 13]: 135
t1/2 [5, 13]: 5.52 h
AUCINF [5, 14]: 531 µg·h/mL
AUClast [5, 14]: 517000 ng·h/mL
CL/F [5, 14]: 0.314 mL/min/kg
Cmax [5, 14]: 74800 ng/mL
Tmax [5, 14]: 2.0 h
Vz/F [5, 14]: 122 mL/kg
t1/2 [5, 14]: 4.5 h
AUCINF [5, 15]: 482 µg·h/mL
AUClast [5, 15]: 468000 ng·h/mL
CL/F [5, 15]: 0.346 mL/min/kg
Cmax [5, 15]: 75600 ng/mL
Tmax [5, 15]: 2.0 h
Vz/F [5, 15]: 128 mL/kg
t1/2 [5, 15]: 4.3 h
AUCINF [5, 16]: 604 µg·h/mL
AUClast [5, 16]: 587000 ng·h/mL
CL/F [5, 16]: 0.276 mL/min/kg
Cmax [5, 16]: 57500 ng/mL
Tmax [5, 16]: 2.0 h
Vz/F [5, 16]: 108 mL/kg
t1/2 [5, 16]: 4.5 h
AUCINF [5, 17]: 628 µg·h/mL
AUClast [5, 17]: 603000 ng·h/mL
CL/F [5, 17]: 0.265 mL/min/kg
Cmax [5, 17]: 56300 ng/mL
Tmax [5, 17]: 2.0 h
Vz/F [5, 17]: 112 mL/kg
t1/2 [5, 17]: 4.9 h
AUCINF [5, 18]: 640 µg·h/mL
AUClast [5, 18]: 631000 ng·h/mL
CL/F [5, 18]: 0.260 mL/min/kg
Cmax [5, 18]: 68400 ng/mL
Tmax [5, 18]: 1.0 h
Vz/F [5, 18]: 91.9 mL/kg
t1/2 [5, 18]: 4.1 h
AUCINF [5, 19]: 546 µg·h/mL
AUClast [5, 19]: 528000 ng·h/mL
CL/F [5, 19]: 0.305 mL/min/kg
Cmax [5, 19]: 45700 ng/mL
Tmax [5, 19]: 4.0 h
Vz/F [5, 19]: 115 mL/kg
t1/2 [5, 19]: 4.3 h
AUCINF [5, 20]: 469 µg·h/mL
AUClast [5, 20]: 455000 ng·h/mL
CL/F [5, 20]: 0.355 mL/min/kg
Cmax [5, 20]: 44700 ng/mL
Tmax [5, 20]: 4.0 h
Vz/F [5, 20]: 144 mL/kg
t1/2 [5, 20]: 4.7 h
AUCINF [5, 21]: 596 µg·h/mL
AUClast [5, 21]: 567000 ng·h/mL
CL/F [5, 21]: 0.280 mL/min/kg
Cmax [5, 21]: 56800 ng/mL
Tmax [5, 21]: 4.0 h
Vz/F [5, 21]: 123 mL/kg
t1/2 [5, 21]: 5.1 h
AUCINF [5, 22]: 635 µg·h/mL
AUClast [5, 22]: 609000 ng·h/mL
CL/F [5, 22]: 0.262 mL/min/kg
Cmax [5, 22]: 57900 ng/mL
Tmax [5, 22]: 4.0 h
Vz/F [5, 22]: 114 mL/kg
t1/2 [5, 22]: 5.0 h
AUCINF [5, 23]: 558 µg·h/mL
AUClast [5, 23]: 541000 ng·h/mL
CL/F [5, 23]: 0.299 mL/min/kg
Cmax [5, 23]: 50000 ng/mL
Tmax [5, 23]: 4.0 h
Vz/F [5, 23]: 120 mL/kg
t1/2 [5, 23]: 4.7 h
t1/2 ([5]; Table S3D: IP 10 mg/kg, Mean N=5): 4.46 h
AUC(0-inf) [5, 24]: 577 µg·h/mL
AUC(0-t) [5, 24]: 561 µg·h/mL
CL/F [5, 24]: 0.292 mL/min/kg
Cmax [5, 24]: 66500 ng/mL
Tmax [5, 24]: 1.8 h
Vd/F [5, 24]: 0.113 L/kg
half-life [5, 24]: 4.5 h
AUC(0-t) [5, 25]: 1740 µg·h/mL
CL/F [5, 25]: 0.278 mL/min/kg
Cmax [5, 25]: 166000 ng/mL
Tmax [5, 25]: 2.8 h
AUC(0-inf) [5, 26]: 561 µg·h/mL
AUC(0-t) [5, 26]: 540 µg·h/mL
CL/F [5, 26]: 0.3 mL/min/kg
Cmax [5, 26]: 51000 ng/mL
Tmax [5, 26]: 4 h
Vd/F [5, 26]: 0.123 L/kg
half-life [5, 26]: 4.75 h
EC50 [6]: > 45 µM
Emax ([6]; read-out: Max Response): 0%
IC50 [7]: > 45 µM
Emax ([7]; read-out: Max Response): 2.1%
